This note sets out measurements from patent US10231946B2, “Methods of treating ischemic organ damage and other disorders” (Zafgen, Inc., priority 2013, dated 2019).

Common to all, as to type: in vivo, human
For one assay, the system named is sRAGE. Briefly: sRAGE study in obese patients treated twice weekly for 81 days. The settings on record: 0.6, 1.2 or 2.4 mg twice weekly for 81 days, FIG. 1. As to the method:
(§1) Obese patients were treated in three cohorts with intravenous administration of a formulation of the compound A. The compound was intravenously administered to each patient of a cohort (except for a placebo cohort) twice weekly for 81 days. Each of patients in the three non-placebo cohorts received either 0.6 mg of compound A (cohort 1); 1.2 mg (cohort 2); or 2.4 mg (cohort 3) doses of the compound at the time of administration. The trial was conducted under the appropriate government and medical supervision.

Assay [1] has as its system adiponectin. Put plainly: Plasma adiponectin after twelve weeks (81 days) of treatment in obese patients. The note with it: doses 0 (placebo), 0.6, 1.2 and 2.4 mg, FIG. 2. As to the method:
as §1

Assay [2] deals with adiponectin. Put plainly: Plasma adiponectin (total, ALPCO ELISA; high molecular weight form) after 4 weeks of intravenous treatment in obese patients. On the technique in general: An ELISA detects its analyte on a solid surface through an enzyme-linked reagent.

Regarding `CO[C@@H]1[C@H](OC(=O)/C=C/c2ccc(OCCN(C)C)cc2)CC[C@]2(CO2)[C@H]1[C@@]1(C)O[C@@H]1CC=C(C)C.O=C(O)C(=O)O` [6-O-(4-dimethylaminoethoxy)cinnamoyl fumagillol oxalate], the “levels of sRAGE in patients' serum” value with sRAGE is listed as “increase”.

As for `CO[C@@H]1[C@H](OC(=O)C=Cc2ccc(OCCN(C)C)cc2)CC[C@]2(CO2)[C@H]1[C@@]1(C)O[C@@H]1CC=C(C)C` [Compound A, O-(4-dimethylaminoethoxycinnamoyl)fumagillol], the plasma adiponectin result in the assay on adiponectin [1] is “dose proportional increases”. Further, the total plasma adiponectin entry with adiponectin [2] (after 4 weeks of intravenous treatment versus placebo, ALPCO ELISA, FIG. 3) is given as “increases in total plasma adiponectin”. Further, the “high molecular weight form of adiponectin” value in the assay on adiponectin [2] (after 4 weeks of intravenous treatment with 1.9 mg versus placebo, FIG. 4) is given as “increases in the high molecular weight form of adiponectin”.
